Data as given in publication PMC4704483 (2015).

Test system: (CUG)100, internal fluorescein-labeled (RNA, repeat) CUGCUGCUGCUGCUGCUGCUGCUGCUGCUGCUGCUGCUGCUGCUGCUGCUGCUGCUGCUGCUGCUGCUGCUGCUGCUGCUGCUGCUGCUGCUGCUGCUGCUGCUGCUGCUGCUGCUGCUGCUGCUGCUGCUGCUGCUGCUGCUGCUGCUGCUGCUGCUGCUGCUGCUGCUGCUGCUGCUGCUGCUGCUGCUGCUGCUGCUGCUGCUGCUGCUGCUGCUGCUGCUGCUGCUGCUGCUGCUGCUGCUGCUGCUGCUGCUGCUGCUGCUGCUGCUGCUGCUGCUGCUGCUGCUGCUGCUGCUG
Assay: fluorescence titration
Details: data not shown

In the case of `CC[C@H]1OC(=O)[C@H](C)[C@@H](O[C@H]2C[C@@](C)(OC)[C@@H](O)[C@H](C)O2)[C@H](C)[C@@H](O[C@@H]2O[C@H](C)C[C@H](N(C)C)[C@H]2O)[C@](C)(O)C[C@@H](C)C(=O)[C@H](C)[C@@H](O)[C@]1(C)O`, the K d (salt form not stated) is reported as under 1 µmol/L.
Molecule `NC[C@@H]1O[C@H](O[C@H]2[C@@H](O)[C@H](O[C@@H]3[C@@H](O)[C@H](N)C[C@H](N)[C@H]3O[C@H]3O[C@H](CN)[C@@H](O)[C@H](O)[C@H]3N)O[C@@H]2CO)[C@H](N)[C@@H](O)[C@@H]1O` has a K d of under 1 µmol/L.
